Results taken from PMC5633609, “Novel Peripherally Restricted Cannabinoid 1 Receptor Selective Antagonist TXX-522 with Prominent Weight-Loss Efficacy in Diet Induced Obese Mice” (Frontiers in Pharmacology, 2017).
Read-outs that look alike come from different tables or passages of the source.

Experiments:
DIO mice and rats = test system: DIO mice and rats; set-up: method as in Alonso et al., 2012; Silvestri and Di Marzo, 2012; conditions: ref Alonso et al., 2012, Silvestri and Di Marzo; cited from earlier work
C57BL/6 mice [1] = assay: WIN 55,212-2-induced hypothermia / body temperature; type: in vivo, C57BL/6J mice; conditions: for effect of compound alone on body temperature: TXX-522 alone, data not shown, WIN 55,212-2 3 mg/kg i.p.; for effect on WIN 55,212-2-induced hypothermia: oral, 1 h before WIN 55,212-2 3 mg/kg i.p., SR141716A 10 mg/kg, TXX-522 20 or 60 mg/kg, 30 min after WIN
Experimental: After a 7-day acclimation, body weight-matched male C57BL/6J mice (8-week-old) were randomly sorted into four different groups (n = 5 mice/group). […] The rectal temperature was monitored using a rectal probe coupled to a digital thermometer before and 30 min after treatment with WIN 55,212-2.

C57BL/6 mice [2] = assay: Acute food intake (appetite) in fasted mice; type: in vivo; conditions: fasted C57BL/6 mice, oral; TXX-522 20 and 60 mg/kg, SR141716A 10 mg/kg; 3 h intake
Experimental: Mice (8-week-old) were maintained singly for 7 days with ad libitum access to a standard diet before testing. […] At 30 min post treatment, the mice were allowed access to rodent chow, and their food intake was measured for the subsequent 3 h.

[3] = Steady state brain to plasma distribution after intravenous administration; type: in vivo, Sprague-Dawley rats; conditions: rat; for fraction of compound in the brain tissue: intravenous, steady state
Experimental: The compounds (2.5 mg/kg) were dissolved in 5% glucose solution containing polyoxyethylene castor oil (2.17%), 1,2-propanediol (0.56%), ethanol (0.75%), and medium chain triglycerides (0.48%) prior to intravenous administration to the Sprague-Dawley rats (n = 3), with an initial push of 0.3 mL at a speed of 75 mL/h, followed by 2.5 mL/h for 40 min. Retro-orbital blood samples (∼250 μL) were collected at defined time-points (0, 10, 15, 20, 25, 30, 35, and 40 min after dosing). The rats were then euthanized by decapitation, the brain and plasma samples were collected, and then stored at -80°C for subsequent assay. The plasma samples and whole rat brain, which had been homogenized with five volumes (v/w) of physiological saline on ice, were extracted by protein precipitation and analyzed using liquid chromatography-mass spectrometry/mass spectrometry, as previously reported ([Fulp et al., 2012]). The steady state Kp-value for each test compound was calculated and used as an index of brain penetration.

human CB2R [4] = molecular target: T1, human CB2R (Homo sapiens, UniProt P34972); assay: Intracellular cAMP assay in CHO-hCB2 cells; type: cell-based; set-up: host or cells: CHO (CHO-hCB2R); conditions: even at 10 μmol/L
Experimental: (§1) The functional antagonism of the response to a CB1R agonist was previously detected in the CHO-hCB1R and CHO-hCB2R cell lines ([Chen et al., 2010], [2011]). Intracellular cAMP was analyzed in these cells using the LANCE cAMP 384 kit (AD0262, PerkinElmer, San Jose, CA, United States) following exposure to the vehicle or different concentrations of the test compounds (individually or combined) in the presence of a phosphodiesterase inhibitor (2.5 μmol/L 3-isobutyl-1-methylxanthine) for 30 min. The cAMP level detected in the vehicle-treated cells was set as 1, and the levels detected in the treated cells were expressed as fold changes compared to the control level.

DIO C57BL/6 mice = assay: Anti-obesity study in DIO C57BL/6 mice; type: in vivo; conditions: for effect on food intake of DIO mice: 1st week of administration; for effect on fasting blood glucose and insulin levels: overnight-fasted; for effect on serum triglyceride and total cholesterol: end of treatment, SR141716A 5 mg/kg, TXX-522 10 mg/kg; for onset of statistically significant body weight difference / effect on body weight of DIO mice: oral gavage daily 4 weeks; for effect on body weight of DIO mice: SR141716A 5 mg/kg/day
Experimental: Male C57BL/6J mice (6-week-old) were maintained on a 12-h light/dark cycle at a controlled temperature (22 ± 1°C) and were fed a high-fat diet (45% fat, 18% protein, and 37% carbohydrate) for 20 weeks to establish the DIO mouse model ([Chen et al., 2010], [2011]). Age-matched standard diet-fed lean mice were used as the normal control group. […] Individual body weights and cage food consumption were measured daily. Oral glucose tolerance testing was performed on treatment day 23 on overnight-fasted mice while the serum glucose and insulin levels were assayed as described previously ([Chen et al., 2013]). At the end of the treatment period, the mice were fasted overnight prior to collecting blood samples for the analysis of serum triglycerides and total cholesterol levels as described previously ([Xie et al., 2015]). Furthermore, the intra-abdominal white adipose tissues (epididymal, lumbar, and perirenal) were removed and weighed.

human CB2R [5] = molecular target: T1, human CB2R; assay: Receptor internalization (redistribution) assay in EGFP-CB2_U2OS cells; type: cell-based; conditions: read-out: IC50 CB2R, antagonism of WIN 55,212-2-induced internalization
Description: (§2) Commercial enhanced green fluorescent protein (EGFP)-CB1/CB2_U2OS cells specifically designed to screen CB1R/CB2R agonists or antagonists (Thermo Fisher Bioimage ApS, Soeborg, Denmark) were used to examine the antagonist activity and selectivity of TXX-522 for these CBR subtypes. […] Based on a previously described method ([Chen et al., 2011]), the regular EGFP-CB1/CB2_U2OS cell culture medium was replaced with F12 culture medium containing 1 μmol/L Hoechst 33342 (Invitrogen, OR, United States) before each experiment, and incubated for 20 min at 37°C. […] Dimethyl sulfoxide (DMSO, 0.1%) was used as the vehicle control. After further incubation for 2 h at 37°C, images of the cells were acquired using the IN Cell Analyzer 2000 (GE Healthcare, NJ, United States; 20× objective) and analyzed using the Granularity Analysis Module of the IN Cell. The inhibition ratio of each tested compound was expressed as percentage inhibition of the internalization induced by the reference CB1R/CB2R agonist, WIN 55,212-2. […] The results were obtained from three independent experiments each performed in triplicate.

human CB1R [6] = molecular target: T2, human CB1R (Homo sapiens, UniProt P21554); type: binding; set-up: host or cells: CHO (CHO-hCB1R)
Experimental: (§3) The affinities of TXX-522 for the human CB1R and CB2R receptor were analyzed using Cerep cooperation (Celle l’Evescault, France) using stably transfected CHO cells (CHO-hCB1R and CHO-hCB2R, respectively) and a previously reported competitive binding assay ([Munro et al., 1993]; [Chen et al., 2011]). Non-specific binding was determined in the presence of 10 μmol/L non-radioactive WIN 55,212-2. […] Each competitive binding inhibition curve was generated using data pooled from three independent experiments each conducted in duplicate.

rat hippocampal neurons = assay: Fluoro-3 AM Ca2+ imaging in hippocampal neurons; type: cell-based; conditions: 10 nmol/L to 10 μmol/L; WIN 55,212-2 1 μmol/L; concentration-dependent
Experimental: Hippocampal neurons were prepared from neonatal rats as described previously and intracellular Ca^2+ levels ([Ca^2+]i) were investigated ([Chen et al., 2010]). […] WIN 55,212-2 (1 μmol/L) was added 1 min later. The fluorescence was monitored and imaged using the IN Cell Analyzer 1000 and analyzed using the Object Intensity Analysis Module of IN Cell. The [Ca^2+]i time courses were monitored by recording the relative fluorescence intensity per cell vs. time.

DIO Kunming mice = assay: Preliminary screening test in DIO Kunming mice; type: in vivo; conditions: 3-week treatment, 20 mg/kg, data not shown
Description: Finally, we further evaluated the in vivo pharmacodynamic effects of TXX-522 in a commonly used mouse model of obesity.

human CB1R [7] = molecular target: T2, human CB1R; assay: Intracellular cAMP assay in CHO-hCB1 cells; type: cell-based; set-up: host or cells: CHO (CHO-hCB1R)
Experimental: as §1

human CB2R [8] = molecular target: T1, human CB2R; assay: Competitive radioligand binding assay, CHO-hCB2R; set-up: host or cells: CHO (CHO-hCB2R); conditions: CHO-hCB2R cells; read-out: IC50, CB2 receptor competitive binding
Experimental: as §3

human CB1R [9] = molecular target: T2, human CB1R; type: cell-based
Description: as §2

[10] = set-up: method as in earlier work; conditions: ref Chorvat et al., 2012, Klumpers et al., 2013, Knani et al., 2016, Lu et al.; cited from earlier work
[11] = 2.5 mg/kg intravenous infusion, 40 min

T1 sequence (P34972 whole entry): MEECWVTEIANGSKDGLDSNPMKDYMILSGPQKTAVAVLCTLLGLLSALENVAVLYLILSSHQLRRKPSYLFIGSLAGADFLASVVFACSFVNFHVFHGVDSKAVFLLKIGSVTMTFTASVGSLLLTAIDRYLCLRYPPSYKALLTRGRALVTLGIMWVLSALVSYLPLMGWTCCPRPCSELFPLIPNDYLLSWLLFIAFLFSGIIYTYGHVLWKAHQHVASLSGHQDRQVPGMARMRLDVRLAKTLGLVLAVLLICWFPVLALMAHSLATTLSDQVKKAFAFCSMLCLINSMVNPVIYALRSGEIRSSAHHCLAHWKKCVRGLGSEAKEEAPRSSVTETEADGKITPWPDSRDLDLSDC
T2 sequence (P21554 whole entry): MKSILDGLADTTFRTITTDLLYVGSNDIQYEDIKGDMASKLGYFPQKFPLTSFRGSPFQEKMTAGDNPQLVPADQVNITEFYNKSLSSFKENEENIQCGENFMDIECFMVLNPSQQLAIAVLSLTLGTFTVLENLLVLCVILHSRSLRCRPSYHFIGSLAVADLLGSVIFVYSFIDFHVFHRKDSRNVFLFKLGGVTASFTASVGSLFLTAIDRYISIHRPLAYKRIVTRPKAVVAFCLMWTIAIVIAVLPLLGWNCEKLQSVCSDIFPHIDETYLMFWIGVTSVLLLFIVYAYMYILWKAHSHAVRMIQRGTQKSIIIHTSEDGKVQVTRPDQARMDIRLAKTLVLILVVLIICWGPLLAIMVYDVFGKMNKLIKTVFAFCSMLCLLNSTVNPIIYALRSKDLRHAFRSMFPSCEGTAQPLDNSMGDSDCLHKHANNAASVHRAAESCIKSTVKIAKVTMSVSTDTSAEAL

| Compound | anorexia in DIO mice and rats (DIO mice and rats) | effect of compound alone on body temperature (C57BL/6 mice [1]) | effect on acute food intake (C57BL/6 mice [2]) | fraction of compound in the brain tissue [3] [%] | effect on intracellular cAMP level in CHO-hCB2 cells (human CB2R [4]) | effect on food intake of DIO mice (DIO C57BL/6 mice) | effect on fasting blood glucose and insulin levels (DIO C57BL/6 mice; DIO mice) | effect on serum triglyceride and total cholesterol (DIO C57BL/6 mice) | onset of statistically significant body weight difference (DIO C57BL/6 mice) | effect on body weight of DIO mice (DIO C57BL/6 mice; TXX-522 5 or 10 mg/kg/day) | effect on WIN 55,212-2-induced hypothermia (C57BL/6 mice [1]) | other results |
| --- | --- | --- | --- | --- | --- | --- | --- | --- | --- | --- | --- | --- |
| CCCCCCc1nc(-c2ccc(Cl)cc2)n(-c2ccc(Cl)cc2Cl)n1 [LH-21] | induced anorexia | – | – | – | – | – | – | – | – | – | – | – |
| Cc1c(C(=O)c2cccc3ccccc23)c2cccc3c2n1[C@H](CN1CCOCC1)CO3 [WIN 55,212-2, reference compound] | – | notably decreased the body temperature | – | – | – | – | – | – | – | – | – | – |
| Cc1c(C(=O)NN2CCCCC2)nn(-c2ccc(Cl)cc2Cl)c1-c1ccc(Cl)cc1 [SR141716A, reference compound] | – | – | significantly inhibited food intake | > 60 | neither TXX-522 nor SR141716A affected | reduced food intake | dramatically decreased | notably reduced hypertriglyceridemia | from day 4 onward | significant reduction | reversed | Kp at 40 min ([3]; Sprague-Dawley, brain and plasma, 2.5 mg/kg intravenous infusion, read-out: Kp (brain to plasma distribution ratio, steady state)): 1.67 |
| (5-(4-chlorophenyl)-1-(2, 4-dichlorophenyl)-4-methyl-1H-pyrazol-3-yl) (piperidin-1-yl) methanone [TXX-522] | – | did not affect the body temperature | did not affect acute food consumption | 2 | neither TXX-522 nor SR141716A affected | no anorexia | dramatically decreased | lowered both serum triglyceride and total cholesterol levels | from 2 weeks | dose-dependently decreased | did not block | IC50 (human CB2R [5]): > 10000 nM; IC50 (human CB1R [6]; CHO-hCB1R cells, radioligand [3H]-CP 55,940 or [3H]-SR141716A, read-out: IC50, CB1R competitive binding): 170 nM; Ki (human CB1R [6]; CHO-hCB1R cells, radioligand [3H]-CP 55,940 or [3H]-SR141716A, read-out: Ki, CB1R competitive binding): 150 nM; selectivity ratio (CB1R over CB2R, binding) (human CB1R [6]; from radioligand binding values): 176; effect on elevation and oscillation of [Ca2+]i elicited by WIN 55,212-2 (rat hippocampal neurons): blocked; Kp (brain to plasma distribution ratio, steady state) ([3]; 2.5 mg/kg intravenous infusion): 0.02; steady state concentration in brain [3, 11]: 528.9 ± 1.6 ng/mL; steady state concentration in plasma [3, 11]: 23323.0 ± 267.8 ng/mL; effect on body weight and fat mass (DIO Kunming mice): significantly reduced body weight and fat mass; reversal of WIN 55,212-2-induced inhibition of forskolin-stimulated cAMP accumulation (human CB1R [7]; WIN 1 μmol/L, forskolin 0.1 μmol/L): dose-dependently reversed; maximum effect on cAMP (human CB1R [7]; at 10 μmol/L with forskolin plus WIN): equivalent to that induced by forskolin alone; effect of compound alone on forskolin-induced cAMP level (inverse agonism) (human CB1R [7]; up to 10 μmol/L, data not shown): no further increase; IC50 (human CB2R [8]): > 30000 nM; IC50 (human CB1R [9]; EGFP-CB1_U2OS cells, WIN 55,212-2 1 μmol/L, read-out: IC50 CB1R, antagonism of WIN 55,212-2-induced internalization): 10.3 ± 6.08 nM; CB2R/CB1R selectivity (internalization IC50 ratio) (human CB1R [9]; EGFP-CB1_U2OS vs EGFP-CB2_U2OS cells): >968; effect on insulin resistance and hyperinsulinemia (DIO C57BL/6 mice; 5 mg/kg): ameliorated the insulin resistance and hyperinsulinemia more than the same dose of SR141716A did; adverse effects / apparent signs of toxicity (DIO C57BL/6 mice; DIO mice, 4 weeks, TXX-522 5 or 10 mg/kg/day): no adverse effects; weight loss and abdominal fat decrease by the end of the study (DIO C57BL/6 mice; chronic treatment, 5 and 10 mg/kg, compared with SR141716A): comparable efficacy to that of SR141716A; oral glucose tolerance testing (DIO C57BL/6 mice; treatment day 23, 5 mg/kg): ameliorated glucose intolerance more than the same dose of SR141716A did |
| CC(C)[C@H](N=C(NS(=O)(=O)c1ccc(Cl)cc1)N1C[C@H](c2ccccc2)C(c2ccc(Cl)cc2)=N1)C(N)=O [JD-5037] | induced anorexia | – | – | – | – | – | – | – | – | – | – | brain to plasma distribution ratio (Kp) [10]: < 1 |
